# Experimental data taken from patent US20230278972A1, “SUBSTITUTED HALOALKYL SULFONANILIDE HERBICIDES” (FMC Corporation, priority 2020, published 2023).
# Columns and labels:
# Type in all cases: in vivo
# corn (Zea mays) [1] = test: Test A1 preemergence, corn
# Method in brief: (§1)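 Herbicidal response was scored on plants treated either preemergence, by directed spray onto soil of a loam–sand blend after sowing, or postemergence on potted plants at the one- to two-leaf stage, 2–10 cm high. Test chemicals were carried in a non-phytotoxic solvent mix with surfactant.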
# [2] = tested on: Foxtail, Giant (giant foxtail, Setaria faberi); test: Test A1 preemergence, Foxtail, Giant
# Method in brief: (§2)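 Pre: seeds in loam/sand blend, directed soil spray. Post: potted plants, same soil, 2–10 cm, 1–2 leaf stage. Chemicals in non-phytotoxic solvent + surfactant for both.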
# [3] = tested on: goosegrass (Eleusine indica); test: Test A1 preemergence, goosegrass
# Method in brief: as §2
# kochia (Bassia scoparia) [4] = test: Test A1 preemergence, kochia
# Method in brief: as §2
# [5] = tested on: Oat, Wild (wild oat, Avena fatua); test: Test A1 preemergence, Oat, Wild
# Method in brief: as §2
# [6] = tested on: Pigweed, Palmer (palmer amaranth, palmer pigweed, Amaranthus palmeri); test: Test A1 preemergence, Pigweed, Palmer
# Text: (§3) Seeds of plant species selected from, blackgrass (Alopecurus myosuroides), corn (Zea mays), Foxtail, Giant (giant foxtail, Setaria faberi), goosegrass (Eleusine indica), kochia (Bassia scoparia), Oat, Wild (wild oat, Avena fatua), Pigweed, Palmer (palmer amaranth, palmer pigweed, Amaranthus palmeri), ragweed (common ragweed, Ambrosia artemisiifolia), Ryegrass, Italian (Italian ryegrass, Lolium multiflorum), soybean (Glycine max), and wheat (Triticum aestivum) were planted into a blend of loam soil and sand and treated preemergence with a directed soil spray using test chemicals formulated in a non-phytotoxic solvent mixture which included a surfactant. At the same time, plants selected from these crop and weed species and also galium (catchweed bedstraw, Galium aparine) and horseweed (Erigeron canadensis) were planted in pots containing the same blend of loam soil and sand and treated with postemergence applications of test chemicals formulated in the same manner. Plants ranged in height from 2 to 10 cm and were in the one- to two-leaf stage for the postemergence treatment. […] A dash (-) response means no test result.
# [7] = tested on: ragweed (common ragweed, Ambrosia artemisiifolia); test: Test A1 preemergence, ragweed
# Method in brief: as §2
# [8] = tested on: Ryegrass, Italian (Italian ryegrass, Lolium multiflorum); test: Test A1 preemergence, Ryegrass, Italian
# Method in brief: as §2
# soybean (Glycine max) [9] = test: Test A1 preemergence, soybean
# Method in brief: as §2
# [10] = tested on: wheat (Triticum aestivum); test: Test A1 preemergence, wheat
# Method in brief: as §2
# [11] = tested on: blackgrass (Alopecurus myosuroides); test: Test A1 postemergence, blackgrass; settings: Postemergence, 0 to 100 scale (0 no effect, 100 complete control)
# Method in brief: as §1
# corn (Zea mays) [12] = test: Test A1 postemergence, corn; settings: Postemergence
# Method in brief: as §2
# [13] = tested on: Foxtail, Giant (giant foxtail, Setaria faberi); test: Test A1 postemergence, Foxtail, Giant; settings: Postemergence
# Method in brief: as §1
# [14] = tested on: goosegrass (Eleusine indica); test: Test A1 postemergence, goosegrass; settings: Postemergence
# Method in brief: as §1
# kochia (Bassia scoparia) [15] = test: Test A1 postemergence, kochia; settings: Postemergence
# Method in brief: as §1
# [16] = tested on: Oat, Wild (wild oat, Avena fatua); test: Test A1 postemergence, Oat, Wild; settings: Postemergence
# Method in brief: as §1
# [17] = tested on: Pigweed, Palmer (palmer amaranth, palmer pigweed, Amaranthus palmeri); test: Test A1 postemergence, Pigweed, Palmer; settings: Postemergence
# Method in brief: as §1
# [18] = tested on: ragweed (common ragweed, Ambrosia artemisiifolia); test: Test A1 postemergence, ragweed; settings: Postemergence
# Method in brief: as §1
# [19] = tested on: Ryegrass, Italian (Italian ryegrass, Lolium multiflorum); test: Test A1 postemergence, Ryegrass, Italian; settings: Postemergence
# Method in brief: as §1
# soybean (Glycine max) [20] = test: Test A1 postemergence, soybean; settings: Postemergence
# Method in brief: as §1
# [21] = tested on: wheat (Triticum aestivum); test: Test A1 postemergence, wheat; settings: Postemergence
# Method in brief: as §1
# [22] = tested on: galium (catchweed bedstraw, Galium aparine); test: Test A1 postemergence, galium; settings: Postemergence
# Method in brief: as §1
# [23] = tested on: horseweed (Erigeron canadensis); test: Test A1 postemergence, horseweed; settings: Postemergence
# Text: as §3
# [24] = tested on: barnyardgrass (Echinochloa crus-galli); test: Test B1 flooded paddy test, barnyardgrass; settings: 250 g ai/ha, Flood, applied to paddy water, 2-leaf stage, visually evaluated after 10 to 14 days
# Text: (§4) A dash (-) response means no test result.
# [25] = tested on: ducksalad (Heteranthera limosa); test: Test B1 flooded paddy test, ducksalad; settings: 250 g ai/ha, Flood, applied to paddy water, 2-leaf stage, visually evaluated after 10 to 14 days
# Text: as §4
# rice (Oryza sativa) = test: Test B1 flooded paddy test, rice; settings: 250 g ai/ha, Flood, applied to paddy water, 2-leaf stage, visually evaluated after 10 to 14 days
# Text: as §4
# [26] = 31 g ai/ha, 0 to 100 scale (0 no effect, 100 complete control)
# [27] = 125 g ai/ha, 0 to 100 scale, 0 no effect, 100 complete control
# [28] = 31 g ai/ha, 0 to 100 scale (0 no effect, 100 complete control), 10 days
smiles,measurement,setting,value
Cc1c(C(=O)N2CCSCC2)cc(N(COC(=O)C(C)(C)C)S(=O)(=O)C(F)(F)F)c(C)c1C [Compound 285],"Plant response rating, Corn",corn (Zea mays) [1]; [26],0
same,"Plant response rating, Corn",corn (Zea mays) [1]; [27],10
same,"Plant response rating, Foxtail, Giant",[2]; [26],40
same,"Plant response rating, Foxtail, Giant",[2]; [27],90
same,"Plant response rating, Goosegrass",[3]; [26],0
same,"Plant response rating, Goosegrass",[3]; [27],70
same,"Plant response rating, Kochia",kochia (Bassia scoparia) [4]; [26],20
same,"Plant response rating, Kochia",kochia (Bassia scoparia) [4]; [27],70
same,"Plant response rating, Oat, Wild",[5]; [26],0
same,"Plant response rating, Oat, Wild",[5]; [27],20
same,"Plant response rating, Pigweed, Palmer",[6]; [26],10
same,"Plant response rating, Pigweed, Palmer",[6]; [27],20
same,"Plant response rating, Ragweed",[7]; [26],0
same,"Plant response rating, Ragweed",[7]; [27],10
same,"Plant response rating, Ryegrass, Italian",[8]; [26],0
same,"Plant response rating, Ryegrass, Italian",[8]; [27],0
same,"Plant response rating, Soybean",soybean (Glycine max) [9]; [26],0
same,"Plant response rating, Soybean",soybean (Glycine max) [9]; [27],0
same,"Plant response rating, Wheat",[10]; [26],0
same,"Plant response rating, Wheat",[10]; [27],20
same,"Plant response rating, Blackgrass","[11]; 31 g ai/ha, 10 days",0
same,"Plant response rating, Blackgrass",[11]; 125 g ai/ha,30
same,"Plant response rating, Corn",corn (Zea mays) [12]; [28],0
same,"Plant response rating, Corn","corn (Zea mays) [12]; 125 g ai/ha, 0 to 100 scale",0
same,"Plant response rating, Foxtail, Giant",[13]; [28],30
same,"Plant response rating, Foxtail, Giant","[13]; 125 g ai/ha, 0 to 100 scale",80
same,"Plant response rating, Goosegrass",[14]; [28],0
same,"Plant response rating, Goosegrass","[14]; 125 g ai/ha, 0 to 100 scale",50
same,"Plant response rating, Kochia",kochia (Bassia scoparia) [15]; [28],10
same,"Plant response rating, Kochia","kochia (Bassia scoparia) [15]; 125 g ai/ha, 0 to 100 scale",90
same,"Plant response rating, Oat, Wild",[16]; [28],0
same,"Plant response rating, Oat, Wild","[16]; 125 g ai/ha, 0 to 100 scale",10
same,"Plant response rating, Pigweed, Palmer",[17]; [28],0
same,"Plant response rating, Pigweed, Palmer","[17]; 125 g ai/ha, 0 to 100 scale",20
same,"Plant response rating, Ragweed",[18]; [28],20
same,"Plant response rating, Ragweed","[18]; 125 g ai/ha, 0 to 100 scale",90
same,"Plant response rating, Ryegrass, Italian",[19]; [28],0
same,"Plant response rating, Ryegrass, Italian","[19]; 125 g ai/ha, 0 to 100 scale",0
same,"Plant response rating, Soybean",soybean (Glycine max) [20]; [28],30
same,"Plant response rating, Soybean","soybean (Glycine max) [20]; 125 g ai/ha, 0 to 100 scale",60
same,"Plant response rating, Wheat",[21]; [28],10
same,"Plant response rating, Wheat","[21]; 125 g ai/ha, 0 to 100 scale",20
same,"Plant response rating, Galium",[22]; [28],40
same,"Plant response rating, Galium","[22]; 125 g ai/ha, 0 to 100 scale",80
same,"Plant response rating, Horseweed",[23]; [28],70
same,"Plant response rating, Horseweed","[23]; 125 g ai/ha, 0 to 100 scale",80
same,"Plant response rating, Barnyardgrass (0 to 100 scale, 0 is no effect, 100 is complete control)",[24],35
same,"Plant response rating, Ducksalad (0 to 100 scale, 0 is no effect, 100 is complete control)",[25],50
same,"Plant response rating, Rice (0 to 100 scale, 0 is no effect, 100 is complete control)",rice (Oryza sativa),0
CCOC(=O)N(c1cc(C(=O)N2CCSCC2)c(C)c(C)c1C)S(=O)(=O)C(F)(F)F [Compound 286],"Plant response rating, Corn",corn (Zea mays) [1]; [26],0
same,"Plant response rating, Corn",corn (Zea mays) [1]; [27],0
same,"Plant response rating, Foxtail, Giant",[2]; [26],80
same,"Plant response rating, Foxtail, Giant",[2]; [27],100
same,"Plant response rating, Goosegrass",[3]; [26],30
same,"Plant response rating, Goosegrass",[3]; [27],90
same,"Plant response rating, Kochia",kochia (Bassia scoparia) [4]; [26],0
same,"Plant response rating, Kochia",kochia (Bassia scoparia) [4]; [27],80
same,"Plant response rating, Oat, Wild",[5]; [26],0
same,"Plant response rating, Oat, Wild",[5]; [27],0
same,"Plant response rating, Pigweed, Palmer",[6]; [26],50
same,"Plant response rating, Pigweed, Palmer",[6]; [27],70
same,"Plant response rating, Ragweed",[7]; [26],0
same,"Plant response rating, Ragweed",[7]; [27],10
same,"Plant response rating, Ryegrass, Italian",[8]; [26],0
same,"Plant response rating, Ryegrass, Italian",[8]; [27],0
same,"Plant response rating, Soybean",soybean (Glycine max) [9]; [26],0
same,"Plant response rating, Soybean",soybean (Glycine max) [9]; [27],40
same,"Plant response rating, Wheat",[10]; [26],0
same,"Plant response rating, Wheat",[10]; [27],30
same,"Plant response rating, Blackgrass","[11]; 31 g ai/ha, 10 days",0
same,"Plant response rating, Blackgrass",[11]; 125 g ai/ha,40
same,"Plant response rating, Corn",corn (Zea mays) [12]; [28],0
same,"Plant response rating, Corn","corn (Zea mays) [12]; 125 g ai/ha, 0 to 100 scale",0
same,"Plant response rating, Foxtail, Giant",[13]; [28],80
same,"Plant response rating, Foxtail, Giant","[13]; 125 g ai/ha, 0 to 100 scale",80
same,"Plant response rating, Goosegrass",[14]; [28],0
same,"Plant response rating, Goosegrass","[14]; 125 g ai/ha, 0 to 100 scale",40
same,"Plant response rating, Kochia",kochia (Bassia scoparia) [15]; [28],20
same,"Plant response rating, Kochia","kochia (Bassia scoparia) [15]; 125 g ai/ha, 0 to 100 scale",50
same,"Plant response rating, Oat, Wild",[16]; [28],0
same,"Plant response rating, Oat, Wild","[16]; 125 g ai/ha, 0 to 100 scale",0
same,"Plant response rating, Pigweed, Palmer",[17]; [28],0
same,"Plant response rating, Pigweed, Palmer","[17]; 125 g ai/ha, 0 to 100 scale",30
same,"Plant response rating, Ragweed",[18]; [28],0
same,"Plant response rating, Ragweed","[18]; 125 g ai/ha, 0 to 100 scale",40
same,"Plant response rating, Ryegrass, Italian",[19]; [28],0
same,"Plant response rating, Ryegrass, Italian","[19]; 125 g ai/ha, 0 to 100 scale",0
same,"Plant response rating, Soybean",soybean (Glycine max) [20]; [28],50
same,"Plant response rating, Soybean","soybean (Glycine max) [20]; 125 g ai/ha, 0 to 100 scale",60
same,"Plant response rating, Wheat",[21]; [28],0
same,"Plant response rating, Wheat","[21]; 125 g ai/ha, 0 to 100 scale",20
same,"Plant response rating, Galium",[22]; [28],50
same,"Plant response rating, Galium","[22]; 125 g ai/ha, 0 to 100 scale",80
same,"Plant response rating, Horseweed",[23]; [28],0
same,"Plant response rating, Horseweed","[23]; 125 g ai/ha, 0 to 100 scale",60
same,"Plant response rating, Barnyardgrass (0 to 100 scale, 0 is no effect, 100 is complete control)",[24],15
same,"Plant response rating, Ducksalad (0 to 100 scale, 0 is no effect, 100 is complete control)",[25],50
same,"Plant response rating, Rice (0 to 100 scale, 0 is no effect, 100 is complete control)",rice (Oryza sativa),0
